Read-outs that look alike come from different tables or passages of the source.
Legend:
Type in all cases: cell-based, Zika virus (ZIKV)
[1] = system: ZIKV human strain FLR (2015/Colombia); assay: Plaque reduction inhibition assay in Vero E6 cells, ZIKV FLR
Experimental: (§1) A plaque reduction inhibition assay was carried out to measure the inhibitory activity of Z-medicaments against infections of ZIKV and DENV. […] The compound-virus mixtures were then transferred to Vero E6 cells (10^5/well) and incubated at 37° C. for 1 h.

[2] = system: ZIKV human strain PLCal_ZV (2013/Thailand); assay: Plaque reduction inhibition assay in Vero E6 cells, ZIKV PLCal_ZV
Experimental: as §1

[3] = system: ZIKV rhesus macaque strain MR 766 (1947/Uganda); assay: Plaque reduction inhibition assay in Vero E6 cells, ZIKV MR 766
Experimental: as §1

[4] = system: ZIKV FLR strain; assay: Combinatorial effects of gossypol with other Z-medicaments, ZIKV FLR; conditions: for Fold of Enhancement / CI (combination index): ZIKV FLR; for Fold of Enhancement: IC50 alone / in mixture; for CI (combination index): named compound in combination with gossypol
Experimental: (§2) The unbound viruses and Z-medicaments were removed, and the cells were cultured at 37° C. for 4-5 days, followed by staining with 0.5% crystal violet. The Z-medicaments without combinations were used as controls. The IC50 of the Z-medicaments was calculated as described above.
(§3) The Z-medicaments were then analyzed for synergistic effects based on the combination index (CI) and IC50 values using the CalcuSyn program. Specifically, CI values <1 and >1 indicate synergy and antagonism, respectively. Synergy was further identified as five different categories: CI values <0.1, 0.1-0.3, 0.3-0.7, 0.7-0.85, and 0.85-0.90 indicate very strong synergism, strong synergism, synergism, moderate synergism, and slight synergism, respectively. Fold enhancement of anti-ZIKV potency is expressed as the ratio of molar concentrations of the Z-medicaments tested alone and in the mixture.

[5] = system: ZIKV (PAN2016); assay: Time-of-addition experiment, ZIKV PAN2016 in Vero E6 cells; conditions: for Inhibition of ZIKV infection, attachment: ZIKV and compound at 4° C. 1 h; for Inhibition of ZIKV infection, pretreatment of ZIKV: virus incubated with compound 37° C. 1 h before cells; for inhibition at 7.5 µM: Zika virus; for Inhibition of ZIKV infection, pretreatment of cells: cells incubated with compound 37° C. 1 h before ZIKV; for Inhibition of ZIKV infection, penetration (membrane fusion): cells with ZIKV at 4° C. 1 h; for Inhibition of ZIKV infection, penetration (membrane fusion) / Inhibition of ZIKV infection, post-entry stage: then compound 37° C. 1 h; for Inhibition of ZIKV infection, post-entry stage: cells with ZIKV at 37° C. 1 h
Experimental: FIG. 2A-K depicts a time-of-addition experiment to test the ability of the disclosed compounds to block ZIKV infection at different steps of the viral life cycle. […] FIG. 2B: Pretreatment of cells: cells were pre-incubated with one of the compounds at 37° C. for 1 h, and the unbound compounds were then removed, followed by addition of ZIKV and incubation of cells at 37° C. for 1 h. After removal of the unbound ZIKV, the cells were cultured and plaques and inhibition rate determined as in FIG. 2A. FIG. 2C: Blockage of ZIKV attachment: cells were incubated with ZIKV at 4° C. for 1 h (to allow ZIKV attachment but not fusion between ZIKV and cell membranes) in the presence of one of the compounds. After removal of the unbound ZIKV and compounds, the cells were cultured and plaques and inhibition rate determined. […] FIG. 2E: Blockage of ZIKV penetration (membrane fusion): cells were incubated with ZIKV at 4° C. for 1 h to allow ZIKV attachment. After removal of the unbound ZIKV, the cells were incubated with one of the compounds at 37° C. for 1 h to allow fusion of virus-cell membranes. After further removal of the unbound compounds, the cells were cultured and plaques and inhibition rate determined. FIG. 2F: Inhibition of post-entry stage: cells were incubated with ZIKV at 37° C. for 1 h (to allow ZIKV entry into the target cells). […] The percent inhibition was calculated based on the numbers of plaques in the presence or absence of serially diluted compounds. The data are expressed as mean±s.e.m. (n=2). The experiments were repeated three times with similar results.
Time-of-addition experiments were performed in Vero E6 cells, and six specific steps are shown as follows. 1) Step 1: Pretreatment of virus. […] After removal of the unbound compounds, ZIKV was incubated with cells at 37° C. for 1 h, followed by culturing cells at 37° C. for 4-5 days, and enumerating plaques. 2) Step 2: Pretreatment of cells. […] The unbound ZIKV was removed, and the cells were cultured and plaques enumerated as in Step 1. 3) Step 3: Attachment. […] After removal of the unbound ZIKV and compounds, the cells were cultured and plaques enumerated as in Step 1. 4) Step 4: Co-treatment. […] After removal of the unbound viruses and compounds, the cells were cultured and plaques enumerated as in Step 1. 5) Step 5: Fusion. Cells were incubated with ZIKV at 4° C. for 1 h for ZIKV attachment. […] The unbound compounds were removed, and the cells were cultured and plaques enumerated as in Step 1. 6) Step 6: Post-entry. Cells were incubated with ZIKV at 37° C. for 1 h for ZIKV entry. […] The unbound compounds were then removed, and the cells were cultured and enumerated for plaques as in Step 1. The data are expressed as mean % inhibition±s.e.m. (n=2). The percent inhibition was calculated based on the numbers of plaques in the presence or absence of the compounds. The experiments were repeated three times with similar results.
Time-of-addition experiments. were performed to identify mechanisms of the Z-medicaments against ZIKV infection. […] Specifically, the following six stages of ZIKV infection were tested: (a) Pretreatment of ZIKV (PAN2016, ˜2.5×10^3 PFU) with the Z-medicaments at 37° C. for 1 h before incubation with cells; (b) Pretreatment of cells with the Z-medicaments at 37° C. for 1 h before incubation with ZIKV (PAN2016, ˜100 PFU); (c) Co-treatment of cells, ZIKV (PAN2016, ˜300 PFU) and the Z-medicaments at 4° C. for 1 h; (d) Co-treatment of cells, ZIKV (PAN2016, ˜100 PFU) and the Z-medicaments at 37° C. for 1 h; (e) Pre-incubation of cells with ZIKV (PAN2016, ˜300 PFU) at 4° C. for 1 h and then incubation with the Z-medicaments at 37° C. for 1 h; and (f) Pre-incubation of ZIKV (PAN2016, ˜100 PFU) and cells at 37° C. for 1 h, followed by incubation with the Z-medicaments at 37° C. for 1 h. […]

[6] = system: ZIKV PRVABC59 strain; assay: Combinatorial effects of gossypol with other Z-medicaments, ZIKV PRVABC59; conditions: for Fold of Enhancement: IC50 alone / in mixture; for CI (combination index): named compound in combination with gossypol
Experimental: as §2, §3

[7] = Zika virus, Vero C1008, Vero E6 cells, Table 1, read-out: IC50 against ZIKV strain FLR
[8] = Zika virus, Vero C1008, Vero E6 cells, Table 1, read-out: IC50 against ZIKV strain PLCal_ZV
[9] = Zika virus, Vero C1008, in Macaca mulatta, Vero E6 cells, Table 1, read-out: IC50 against ZIKV strain MR 766
[10] = co-treatment of cells, gossypol 15 μM, curcumin 30 μM, digitonin 7.5 μM, conessine 30 μM, ST087010 15 μM
[11] = gossypol 15 μM, curcumin 30 μM, digitonin 7.5 μM, conessine 30 μM, ST087010 15 μM

SMILES | IC50 [1, 7] [nM] | IC50 [2, 8] [nM] | IC50 [3, 9] [nM] | Inhibition of ZIKV infection, attachment [5, 10] | Inhibition of ZIKV infection, pretreatment of ZIKV [5, 11] | CI (combination index) [6] | CI (combination index) [4] | Inhibition of ZIKV infection, pretreatment of cells [5, 11] | Inhibition of ZIKV infection, penetration (membrane fusion) [5, 11] | Inhibition of ZIKV infection, post-entry stage [5, 11] | also measured
Cc1cc2c(C(C)C)c(O)c(O)c(C=O)c2c(O)c1-c1c(C)cc2c(C(C)C)c(O)c(O)c(C=O)c2c1O [Gossypol, gossypol] | 210 ± 10 | 1980 ± 70 | 3750 ± 10 |  |  |  |  |  |  |  | IC50 ([1]; Zika virus, Vero C1008, read-out: ZIKV strains IC50, FLR): 730 ± 70 nM; IC50 ([2]; Zika virus, Vero C1008, read-out: ZIKV strains IC50, PLCal_ZV): 2880 ± 190 nM; IC50 ([3]; Zika virus, Vero C1008, in Macaca mulatta, read-out: ZIKV strains IC50, MR766): 4140 ± 50 nM; IC50 ([4]; Zika virus, Vero C1008, read-out: IC50 Alone): 260 ± 10 nM
C[C@H]1[C@H]2CC[C@H]3[C@@H]4CC=C5C[C@@H](N(C)C)CC[C@]5(C)[C@H]4CC[C@]23CN1C [Conessine, conessine] |  |  |  | very low, to no, effects | very low, to no, effects | 0.28 | 0.85 |  |  |  | Fold of Enhancement ([6]; gossypol + conessine): 7.29; Fold of Enhancement ([4]; gossypol + conessine): 2.13
C[C@@H]1CC[C@@]2(OC1)O[C@H]1[C@@H](O)[C@H]3[C@@H]4CC[C@H]5C[C@@H](O[C@@H]6O[C@H](CO)[C@H](O[C@@H]7O[C@H](CO)[C@@H](O)[C@H](O[C@@H]8OC[C@@H](O)[C@H](O)[C@H]8O)[C@H]7O[C@@H]7O[C@H](CO)[C@H](O)[C@H](O[C@@H]8O[C@H](CO)[C@@H](O)[C@H](O)[C@H]8O)[C@H]7O)[C@H](O)[C@H]6O)[C@H](O)C[C@]5(C)[C@H]4CC[C@]3(C)[C@H]1[C@@H]2C [Digitonin, digitonin] | 3340 ± 220 | 3190 ± 250 | 3770 ± 310 |  | no effects | 0.29 | 0.95 |  |  |  | inhibition at 7.5 µM ([5]; Vero C1008, 1 h, read-out: Inhibition of ZIKV infection, penetration (membrane fusion)): 49 to 74%; inhibition at 7.5 µM ([5]; Vero C1008, 1 h, read-out: Inhibition of ZIKV infection, post-entry stage): 49 to 74%; inhibition at 7.5 µM ([5]; Vero C1008, read-out: Inhibition of ZIKV infection, pretreatment of cells): ≥ 94%; Fold of Enhancement ([6]; gossypol + digitonin): 6.98; Fold of Enhancement ([4]; gossypol + digitonin): 2.04
COc1cc(/C=C/C(=O)CC(=O)/C=C/c2ccc(O)c(OC)c2)ccc1O [Curcumin, curcumin] |  |  |  |  |  | 0.30 | 0.49 | low to no impact | low to no impact | low to no impact | Fold of Enhancement ([6]; gossypol + curcumin): 6.46; Fold of Enhancement ([4]; gossypol + curcumin): 3.84
Cc1cc2c(C(C)C)c(O)c(O)c(/C=N/n3c(=O)[nH][nH]c3=O)c2c(O)c1-c1c(C)cc2c(C(C)C)c(O)c(O)c(/C=N/n3c(=O)[nH][nH]c3=O)c2c1O [ST087010] |  |  |  | < 40% | almost completely inhibited |  |  | no or little | no or little | < 20% | IC50 ([1]; Vero E6 cells, Table 7, gossypol derivatives, read-out: ZIKV strains IC50, FLR): 2760 ± 100 nM; IC50 ([2]; Vero E6 cells, Table 7, gossypol derivatives, read-out: ZIKV strains IC50, PLCal_ZV): 2210 ± 80 nM; Inhibition of ZIKV infection, co-treatment of ZIKV and cells ([5]; co-treatment of cells, ZIKV and compound at 37° C. 1 h, gossypol 15 μM, curcumin 30 μM, digitonin 7.5 μM, conessine 30 μM, ST087010 15 μM): no or little; IC50 ([3]; Vero E6 cells, Table 7, gossypol derivatives, read-out: ZIKV strains IC50, MR766): 3520 ± 200 nM
